Measurements: patent publication US20230390192A1, “GASTRO RETENTIVE DOSAGE FORMS COMPRISING DEUTETRABENAZINE” (AUSPEX PHARMACEUTICALS, INC., priority 2020, published 2023)

Legend:
[1] = in vivo; cited from earlier work
Human [14C]-AME study = details: humans, dosed as powder in capsule (PIC)
[2] = Single-dose partial crossover comparative bioavailability study in dogs
Protocol: The trial was conducted as an open-label, randomized, single-dose, partial crossover comparative bioavailability study. The study was designed to determine the AUC0-t, AUC0-24, Cmax and Tmax of deutetrabenazine and total deuterated α- and β-dihydrotetrabenazine (deuHTBZ) metabolites. The sample group consisted of 4 male beagle dogs. Each dog was administered two treatments. […] A washout period of 14 days was kept before crossing over to the next treatment. Each dog was administered a single oral dose with 10 ml water. Prior to each dose administration, the dogs were pretreated with pentagastrin (to stimulate gastric acid secretion.
Blood samples were collected before dosing and at predetermined time points through 24 hours post-dosing. The samples were analyzed for deutetrabenazine and total deuHTBZ in plasma using an LC-MS/MS method.

[3] = Drug solubility at different pH
[4] = Deutetrabenazine/deuHTBZ Cmax ratio in humans; assay type: in vivo
[5] = Rat perfusion model, intestinal permeability/absorption
[6] = Particle size distribution by laser diffractometry (Mastersizer 3000); assay type: physicochemical; details: drug substance, dry measurement
From the text: As used herein, the term “particle size distribution” refers to the statistical distribution of the volume share related of all particle sizes and is represented by D90, D50 or D10 values. The D90 value of the integral volume distribution is defined in the context of this invention as the particle diameter, at which 90 percent by volume of the particles have a smaller diameter than the diameter, which corresponds to the D90 value. For example, a D90 of 15 μm, means that 90% (by volume) of the particles have a diameter less than or equal to 15 μm. A D50 of 10 μm, means that 50% (by volume) of the particles have a diameter less than or equal to 10 μm. A D10 of 3 μm, means that 10% (by volume) of the particles have a diameter less than or equal to 3 μm. Particle size distribution is determined by means of laser diffractometry. More specifically, the particle size distribution is determined using a Mastersizer 3000 from Malvern Instruments.
The deutetrabenazine particle size distributions following manufacture (untreated), milling (quadro co-mill) and micronization (air jet mill) are shown in Table 1.
For dry measurement of the milled and unmilled deutetrabenazine the following settings are preferably used: […]

| SMILES | half-life of active metabolites relative to tetrabenazine [1] | radioactive dose recovered in urine (Human [14C]-AME study) | deutetrabenazine/deuHTBZ Cmax ratio [2] | solubility ([3]; acidic environment (pH<4)) | solubility ([3]; pH ≥4) [µg/mL] | deutetrabenazine/deuHTBZ Cmax ratio [4] [%] | permeability through the small intestinal (SI) segments ([5]; rat perfusion model) | levels of absorption in the lower GI (rank order of segments) ([5]; rats) | ileum absorption ([5]; rats, lower GI) | D10 [6] [μm] | D50 [6] [μm] | D90 [6] [μm] |
| --- | --- | --- | --- | --- | --- | --- | --- | --- | --- | --- | --- | --- |
| [2H]C([2H])([2H])Oc1cc2c(cc1OC([2H])([2H])[2H])[C@H]1CC(=O)[C@H](CC(C)C)CN1CC2 [Deutetrabenazine, (RR,SS)-1,3,4,6,7,11b-hexahydro-9,10-di(methoxy-D3)-3-(2-methylpropyl)-2H-benzo[a]quinolizin-2-one] | increased | approximately 80% | about 10% | relatively good solubility | < 2300 | < 1 | permeable | Jejunum<Mid-small intestine<Colon<Ileum | about 0.0006 cm/sec | – | – | – |
| [2H]C([2H])([2H])Oc1cc2c(cc1OC([2H])([2H])[2H])C1CC(=O)C(CC(C)C)CN1CC2 (stereo not drawn) [co-milled, deutetrabenazine] | – | – | – | – | – | – | – | – | – | 6.11 | 33.55 | 131.55 |
| [2H]C([2H])([2H])Oc1cc2c(cc1OC([2H])([2H])[2H])C1CC(=O)C(CC(C)C)CN1CC2 (stereo not drawn) [micro-milled, deutetrabenazine] | – | – | – | – | – | – | – | – | – | 1.08 | 3.31 | 7.05 |
| [2H]C([2H])([2H])Oc1cc2c(cc1OC([2H])([2H])[2H])C1CC(=O)C(CC(C)C)CN1CC2 (stereo not drawn) [unmilled, deutetrabenazine] | – | – | – | – | – | – | – | – | – | 9.08 | 59.66 | 213.07 |
